According to US12545639B2, “3-substituted phenylamidine compounds, preparation and use thereof” (PI INDUSTRIES LTD., priority 2019, dated 2026):

How the values were obtained:
[1] = tested on: Pyricularia oryzae; test: microbe, parasite or virus in culture; format: cell-based; conditions: 168 h, read-out: control compared to the untreated check (radial growth)
[2] = tested on: Rhizoctonia solani; test: Rhizoctonia solani (rice sheath blight/potato black scurf) in vitro test, radial growth on potato dextrose agar; format: cell-based; conditions: 168 h, 300 ppm in potato dextrose agar, 25° C., 60% relative humidity, seven days, read-out: control compared to the untreated check (radial growth)
[3] = tested on: Alternaria solani; test: Alternaria solani (early blight of tomato/potato) in vitro test, radial growth on potato dextrose agar; format: cell-based; conditions: 168 h, 300 ppm in potato dextrose agar, 25° C., 60% relative humidity, seven days, read-out: control compared to the untreated check (radial growth)
[4] = tested on: Colletotrichum capsici; test: Colletotrichum capsici (anthracnose) in vitro test, radial growth on potato dextrose agar; format: cell-based; conditions: Colletotrichum truncatum, 168 h; 300 ppm in potato dextrose agar; 25° C., 60% relative humidity, seven days; read-out: control compared to the untreated check (radial growth)
[5] = tested on: Botrytis cinerea; test: Botrytis cinerea (gray mold) in vitro test, radial growth on potato dextrose agar; format: cell-based; conditions: 168 h, 300 ppm in potato dextrose agar, 22° C., 90% relative humidity, seven days, read-out: control compared to the untreated check (radial growth)
[6] = tested on: Phakopsora pachyrhizi; test: Phakopsora pachyrhizi test in soybean, preventive, in vivo on plants; conditions: in Glycine max, read-out: Efficacy (% control), disease severity compared to the untreated check
[7] = tested on: Septoria lycopersici/Corynespora cassicola (CORYCA); test: Septoria lycopersici/Corynespora cassicola (CORYCA) (leaf spot of tomato) in vitro test, radial growth on potato dextrose agar; format: cell-based; conditions: 168 h, 300 ppm in potato dextrose agar, 25° C., 70% relative humidity, seven days, read-out: control compared to the untreated check (radial growth)

CCN(C)C=Nc1cc(F)cc(Nc2ccc(OC)c(F)c2)c1C [Compound 254, N-ethyl-N′-(5-fluoro-3-((3-fluoro-4-methoxyphenyl)amino)-2-methylphenyl)-N-methylformimidamide]
≥ 70%: inhibition of growth at 300 ppm [1] | inhibition of growth at 300 ppm [2] | inhibition of growth at 300 ppm [3] | inhibition of growth at 300 ppm [4]

CCN(C)C=Nc1cc(C)cc(Cc2cccc(Cl)c2)c1Cl [Compound 27, N′-(2-chloro-3-(3-chlorobenzyl)-5-methylphenyl)-N-ethyl-N-methylformimidamide]
≥ 70%: inhibition of growth at 300 ppm [2] | inhibition of growth at 300 ppm [5] | inhibition of growth at 300 ppm [3] | inhibition of growth at 300 ppm [4]

CCN(C)C=Nc1cc(F)cc(N(C)c2cccc(OC)c2)c1C [Compound 39, N-ethyl-N′-(5-fluoro-3-((3-methoxyphenyl)(methyl)amino)-2-methylphenyl)-N-methylformimidamide]
≥ 70%: inhibition of growth at 300 ppm [1] | inhibition of growth at 300 ppm [3] | inhibition of growth at 300 ppm [4] | pest or weed control at 500 ppm [6]

CCN(C)C=Nc1cc(C)cc(N(C)c2ccccc2F)c1C [Compound 7, N-ethyl-N′-(3-((2-fluorophenyl)(methyl)amino)-2,5-dimethylphenyl)-N-methylformimidamide]
≥ 70%: inhibition of growth at 300 ppm [1] | inhibition of growth at 300 ppm [2] | inhibition of growth at 300 ppm [3] | inhibition of growth at 300 ppm [4]

CCN(C)C=Nc1cc(C)cc(N(C)c2ccc(Cl)cc2)c1Cl [Compound 62, N′-(2-chloro-3-((4-chlorophenyl)(methyl)amino)-5-methylphenyl)-N-ethyl-N-methylformimidamide]
≥ 70%: inhibition of growth at 300 ppm [5] | inhibition of growth at 300 ppm [3] | inhibition of growth at 300 ppm [4]

CCN(C)C=Nc1cc(C)cc(Nc2ccc(OC)cc2)c1Cl [Compound 61, N′-(2-chloro-3-((4-methoxyphenyl)amino)-5-methylphenyl)-N-ethyl-N-methylformimidamide]
≥ 70%: inhibition of growth at 300 ppm [1] | inhibition of growth at 300 ppm [2] | inhibition of growth at 300 ppm [3] | inhibition of growth at 300 ppm [4]

CCN(C)C=Nc1cc(C)cc(Nc2ccc(OC)c(F)c2)c1Cl [Compound 255, N′-(2-chloro-3-((3-fluoro-4-methoxyphenyl)amino)-5-methylphenyl)-N-ethyl-N-methylformimidamide]
≥ 70%: inhibition of growth at 300 ppm [1] | inhibition of growth at 300 ppm [2] | inhibition of growth at 300 ppm [3] | inhibition of growth at 300 ppm [4] | pest or weed control at 500 ppm [6]

CCN(C)C=Nc1cc(C)cc(N(C)c2cccc(C)c2F)c1Cl [Compound 139, N′-(2-chloro-3-((2-fluoro-3-methylphenyl)(methyl)amino)-5-methylphenyl)-N-ethyl-N-methylformimidamide]
≥ 70%: inhibition of growth at 300 ppm [1] | inhibition of growth at 300 ppm [4]

CCN(C)C=Nc1cc(C)cc(Nc2ccc(F)cc2F)c1Cl [Compound 75, N′-(2-chloro-3-((2,4-difluorophenyl)amino)-5-methylphenyl)-N-ethyl-N-methylformimidamide]
≥ 70%: inhibition of growth at 300 ppm [1] | inhibition of growth at 300 ppm [2] | inhibition of growth at 300 ppm [3] | inhibition of growth at 300 ppm [4]

CCN(C)C=Nc1cc(Cl)cc(Cc2cccc(Br)c2)c1C [Compound 245, N′-(3-(3-bromobenzyl)-5-chloro-2-methylphenyl)-N-ethyl-N-methylformimidamide]
≥ 70%: inhibition of growth at 300 ppm [1] | inhibition of growth at 300 ppm [2] | inhibition of growth at 300 ppm [5] | inhibition of growth at 300 ppm [3] | inhibition of growth at 300 ppm [4]

CCN(C)C=Nc1cc(Cl)cc(Cc2ccccc2C(F)(F)F)c1C [Compound 244, N′-(5-chloro-2-methyl-3-(2-(trifluoromethyl)benzyl)phenyl)-N-ethyl-N-methylformimidamide]
≥ 70%: inhibition of growth at 300 ppm [1] | inhibition of growth at 300 ppm [2] | inhibition of growth at 300 ppm [5] | inhibition of growth at 300 ppm [3] | inhibition of growth at 300 ppm [4]

CCN(C)C=Nc1cc(C)cc(N(C)c2ccc(Cl)cc2F)c1Cl [Compound 156, N′-(2-chloro-3-((4-chloro-2-fluorophenyl)(methyl)amino)-5-methylphenyl)-N-ethyl-N-methylformimidamide]
≥ 70%: inhibition of growth at 300 ppm [3] | inhibition of growth at 300 ppm [4] | pest or weed control at 500 ppm [6]

CCN(C)C=Nc1cc(C)cc(Cc2cccc(C#N)c2)c1Cl [Compound 48, N′-(2-chloro-3-(3-cyanobenzyl)-5-methylphenyl)-N-ethyl-N-methylformimidamide]
≥ 70%: inhibition of growth at 300 ppm [1] | inhibition of growth at 300 ppm [2] | inhibition of growth at 300 ppm [3] | inhibition of growth at 300 ppm [4]

CCN(C)C=Nc1cc(OC)cc(Cc2cccc(C(F)(F)F)c2)c1C [Compound 296, N-ethyl-N′-(5-methoxy-2-methyl-3-(3-(trifluoromethyl)benzyl)phenyl)-N-methylformimidamide]
≥ 70%: inhibition of growth at 300 ppm [1] | inhibition of growth at 300 ppm [2] | inhibition of growth at 300 ppm [5] | inhibition of growth at 300 ppm [3] | inhibition of growth at 300 ppm [7] | pest or weed control at 500 ppm [6]

CCN(C)C=Nc1cc(F)cc(Nc2ccc3ncsc3c2)c1C [Compound 225, N′-(3-(benzo[d]thiazol-6-ylamino)-5-fluoro-2-methylphenyl)-N-ethyl-N-methylformimidamide]
≥ 70%: inhibition of growth at 300 ppm [1] | inhibition of growth at 300 ppm [3] | inhibition of growth at 300 ppm [4]

CCN(C)C=Nc1cc(F)cc(Cc2ccccc2)c1C [Compound 149, N′-(3-benzyl-5-fluoro-2-methylphenyl)-N-ethyl-N-methylformimidamide]
≥ 70%: inhibition of growth at 300 ppm [1] | inhibition of growth at 300 ppm [2] | inhibition of growth at 300 ppm [5] | inhibition of growth at 300 ppm [3] | inhibition of growth at 300 ppm [7] | pest or weed control at 500 ppm [6]

CCN(C)C=Nc1cc(F)cc(Nc2cccc(C(F)(F)F)n2)c1C [Compound 273, N-ethyl-N′-(5-fluoro-2-methyl-3-((6-(trifluoromethyl)pyridin-2-yl)amino)phenyl)-N-methylformimidamide]
≥ 70%: inhibition of growth at 300 ppm [1] | inhibition of growth at 300 ppm [2] | inhibition of growth at 300 ppm [5] | inhibition of growth at 300 ppm [3] | inhibition of growth at 300 ppm [7] | pest or weed control at 500 ppm [6]
